Target: T1, 5-HT2CR (Homo sapiens, UniProt P28335)
T1 construct: expressed in transfected cells
T1 sequence (P28335 33-458): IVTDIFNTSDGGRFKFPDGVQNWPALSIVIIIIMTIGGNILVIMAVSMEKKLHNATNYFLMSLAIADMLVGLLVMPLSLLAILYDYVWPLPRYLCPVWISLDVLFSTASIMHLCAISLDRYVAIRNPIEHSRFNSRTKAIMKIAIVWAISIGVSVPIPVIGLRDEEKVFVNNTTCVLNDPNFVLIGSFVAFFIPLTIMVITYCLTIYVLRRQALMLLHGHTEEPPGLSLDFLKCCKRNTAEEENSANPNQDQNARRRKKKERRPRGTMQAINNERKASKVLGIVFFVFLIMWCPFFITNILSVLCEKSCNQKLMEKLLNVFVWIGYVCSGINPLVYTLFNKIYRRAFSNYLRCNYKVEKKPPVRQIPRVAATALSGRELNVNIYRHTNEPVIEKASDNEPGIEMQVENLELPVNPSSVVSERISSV
Experiment: 5-HT-evoked Cai2+ release in vitro
Assay type: cell-based
Settings: highest concentration tested in vitro (10 μM)
Source text: General Method for In Vitro Pharmacological Assessment of Compounds of the Invention. The Chinese hamster ovary (CHO) cell lines stably transfected with human unedited (INI) h5-HT2CR (h5-HT2CR—CHO cells) or the human h5-HT2AR (h5-HT2AR—CHO cells) were a generous gift of K. Berg and W. Clarke (University of Texas Health Science Center, San Antonio, TX) (Berg et al., Molecular Pharmacology, 46:477-484, 1994; Ding et al., ACS Chemical Neuroscience, 3:538-545, 2012). […] Changes in Cai^2+ levels were determined using the calcium sensitive dye Calcium 4 or Calcium 6 (FLIPR No-wash kit, Molecular Devices, Sunnyvale, CA). […] The fluorescence readings were then adopted to evaluate the allosteric modulation of 5-HT-induced Cai^2+ release. FlexStation 3 or FLIPR^TETRA was used to measure fluorescence. For FlexStation 3, a 17 s baseline was established before the compound was added, and fluorescence was recorded every 1.7 s thereafter for 240 s. The maximum peak height of each well was determined by SoftMax software (Pro 5.4.5). For FLIPR^TETRA, a 10 s baseline was established before adding the compound, and then record the fluorescence every 1 s for 120 s after the compound or 360 s after 5-HT. The maximum peak height of each well was determined by ScreenWorks 4.0 software. After the final reading, the cells were fixed in 2% paraformaldehyde (Sigma) overnight. […]

Row | Compound | agonist-like properties
1 | CCCCCCCCCCC[C@@H]1CCN[C@H](C(=O)N[C@@H]([C@H]2O[C@H](SC)[C@H](O)[C@@H](O)[C@H]2O)[C@H](C)Cl)C1.Cl [PNU-69176E] | agonist-like properties observed

Same assay, conditions: profile of a 5-HT2CR PAM

Row | Compound | 5-HT-evoked Cai2+ release
2 | CCCCCCCCCCC[C@@H]1CCN[C@H](C(=O)N[C@@H]([C@H]2O[C@H](SC)[C@H](O)[C@@H](O)[C@H]2O)[C@H](C)Cl)C1.Cl [PNU-69176E] | potentiated

Test system: not listed separately
Experiment: Solubility of representative compounds (Table 1)
Assay type: physicochemical
Settings: solvents listed

Row | Compound | Solubility
3 | N-(2-hydroxyethyl)-N-methyl-4-phenethylpiperidine-2-carboxamide [AB0127] | EtOH, DMSO
4 | N-(2-hydroxyethyl)-4-phenethylpiperidine-2-carboxamide [AB0123] | EtOH, DMSO
5 | N-(azetidin-3-yl)-4-phenethylpiperidine-2-carboxamide [AB0121] | EtOH, DMSO
6 | 4-phenethyl-N-(2-(piperazin-1-yl)ethyl)piperidine-2-carboxamide [AB0131] | EtOH, DMSO
7 | N-((2R,3R)-1,3-dihydroxybutan-2-yl)-4-phenethylpiperidine-2-carboxamide [AB0126] | EtOH, DMSO
8 | N,N-bis(2-hydroxyethyl)-4-phenethylpiperidine-2-carboxamide [AB0128] | EtOH, DMSO
9 | N-(2-(2-hydroxyethoxy)ethyl)-4-phenethylpiperidine-2-carboxamide [AB0136] | EtOH, DMSO
10 | N-((1S,2S)-1,3-dihydroxy-1-(4-(methylthio)phenyl)propan-2-yl)-4-phenethylpiperidine-2-carboxamide [AB0135] | EtOH, DMSO
11 | N-(2-methoxyethyl)-4-phenethylpiperidine-2-carboxamide [AB0122] | EtOH, DMSO
12 | N-(2-(4-methylpiperazin-1-yl)ethyl)-4-phenethylpiperidine-2-carboxamide [AB0146] | EtOH, DMSO
13 | N-((2S,3S)-1,3-dihydroxybutan-2-yl)-4-phenethylpiperidine-2-carboxamide [AB0125] | EtOH, DMSO
14 | N-(2-(1,1-dioxidothiomorpholino)ethyl)-4-phenethylpiperidine-2-carboxamide [AB0132] | EtOH, DMSO
15 | N-(3-morpholinopropyl)-4-phenethylpiperidine-2-carboxamide [AB0145] | EtOH, DMSO
16 | N-(2-(dimethylamino)ethyl)-4-phenethylpiperidine-2-carboxamide [AB0124] | EtOH, DMSO

From patent publication US20240360100A1, “HETEROCYCLIC COMPOUNDS AS SEROTONIN (5-HT) 5-HT2A AND 5-HT2C RECEPTOR POSITIVE ALLOSTERIC MODULATORS” (The Board of Regents of The University of Texas System, priority 2021, published 2024)
